Source: patent publication US6525059B1, “Substituted pyrazoles as p38 kinase inhibitors” (G. D. Searle & Company, priority 1998, dated 2003)
Where a name gives a salt, the structure may show the parent alone. Read-outs that look alike come from different tables or passages of the source.

System: TNF-α
Assay: Rat assay: LPS-challenged rats, serum TNF-α by ELISA
Assay type: in vivo
Method: The efficacy of the novel compounds in blocking the production of TNF also was evaluated using a model based on rats challenged with LPS. Male Harlen Lewis rats [Sprague Dawley Co.] were used in this model. Each rat weighed approximately 300 g and was fasted overnight prior to testing. Compounds administration was typically by oral gavage (although intraperitoneal, subcutaneous and intravenous administration were also used in a few instances) 1 to 24 hours prior to the LPS challenge. Rats were administered 30 μg/kg LPS [salmonella typhosa, Sigma Co.] intravenously via the tail vein. Blood was collected via heart puncture 1 hour after the LPS challenge. Serum samples were stored at −20° C. until quantitative analysis of TNF-α by Enzyme Linked-Immuno-Sorbent Assay (“ELISA”) [Biosource]. Additional details of the assay are set forth in Perretti, M., et al., Br. J. Pharmacol. (1993), 110, 868-874, which is incorporated by reference in this application.
In vivo assessment of the ability of the compounds to inhibit LPS-stimulated TNF release in the rat is shown in the column identified as:
wherein in the dose is milligram per kilogram (mpk) administered by oral gavage and the predose time indicates the number of hours before LPS challenge when the compound is administered.

[1] = 3 mpk oral gavage, -4h before LPS
[2] = 3 mpk oral gavage, 4 h before LPS challenge

Compound | Rat LPS Model % inhib @ dose @ predose time [1] | other results
CC(NS(=O)(=O)c1ccc(F)cc1)c1[nH]nc(-c2ccc(F)cc2)c1-c1ccncc1 (stereo not shown) [Example B-0562] | 5% @ 3 mpk @ -4h | 
CC(NS(=O)(=O)c1cccc(Cl)c1)c1[nH]nc(-c2ccc(F)cc2)c1-c1ccncc1 (stereo not shown) [Example B-0639] | 50% @ 3 mpk @ -4h | 
O=C(c1ccc(F)cc1)N1CCC(c2[nH]nc(-c3ccc(F)cc3)c2-c2ccncc2)CC1 [Example B-1360] |  | Rat LPS Model % inhib @ dose @ predose time [2]: 54% @ 3 mpk @ -4h
CC(NS(=O)(=O)c1ccc(Cl)s1)c1[nH]nc(-c2ccc(F)cc2)c1-c1ccncc1 (stereo not shown) [Example B-0650] | 8% @ 3 mpk @ -4h | 
5-[2-(1,1-DIMETHYL)AMINOETHYL]-4-(4-PYRIDYL)-3-(4-FLUOROPHENYL)PYRAZOLE [Example C-114] |  | Rat LPS Model % Inhibition @ dose @ predose time (5 mpk oral gavage, 4 h before LPS challenge): 39% @ 5 mpk @ −4h
Fc1ccc(-c2n[nH]cc2-c2ccnc(NCCN3CCC(N4CCCCC4)CC3)c2)cc1 [Example A-350, N-(2-[1,4′-bipiperidin]-1′-ylethyl)-4-[3-(4-fluorophenyl)-1H-pyrazol-4-yl]-2-pyridinamine] |  | inhibition in vivo at 20 mg/kg (Rattus norvegicus, po, Table 9, dose 20 mg/kg): 65%
O=C(O)CCC(=O)N1CCN(c2n[nH]c(-c3ccc(Cl)cc3)c2-c2ccncc2)CC1 [A-321 (monosodium salt dihydrate), 4-[5-(4-chlorophenyl)-4-(4-pyridinyl)-1H-pyrazol-3-yl]-γ-oxo-1-piperazinebutanoic acid, monosodium salt dihydrate] |  | inhibition in vivo at 3 mg/kg (Rattus norvegicus, po, read-out: Rat LPS Assay % Inhibition): 14%
CC(NS(=O)(=O)Cc1ccccc1)c1[nH]nc(-c2ccc(F)cc2)c1-c1ccncc1 (stereo not shown) [Example B-0566] | 0% @ 3 mpk @ -4h | 
CC(NC(=O)C(C)(C)C)c1[nH]nc(-c2ccc(F)cc2)c1-c1ccncc1 (stereo not shown) [Example B-0601] | 43% @ 3 mpk %-4h | 
O=C(CO)N1CCC(c2[nH]nc(-c3ccc(Cl)cc3)c2-c2ccncn2)CC1 [Example D-1, N-(2-Hydroxyacetyl)-5-(4-piperidyl)-4-(4-pyrimidyl)-3-(4-chlorophenyl)pyrazole] |  | inhibition in vivo at 1 mg/kg (Rattus norvegicus, po, 1.0 mg/kg oral gavage, 4 hours before LPS challenge, read-out: ratLPS/% Inh @1.0 (mg/kg)): 83%
CC(NS(=O)(=O)c1ccc(C#N)cc1)c1[nH]nc(-c2ccc(F)cc2)c1-c1ccncc1 (stereo not shown) [Example B-0656] | 28% @ 3 mpk @ -4h | 
Cc1ccc(S(=O)(=O)NC(C)c2[nH]nc(-c3ccc(F)cc3)c2-c2ccncc2)cc1 (stereo not shown) [Example B-0576] | 65% @ 3 mpk @ -4h | 
C[C@@H](NS(=O)(=O)N(C)C)c1[nH]nc(-c2ccc(F)cc2)c1-c1ccncc1 [Example B-0487] |  | inhibition in vivo at 3 mg/kg (Rattus norvegicus, po, -4 h, 3 mpk oral gavage, -4h before LPS, read-out: Rat LPS Model % inhib @ dose @ predose time): 54%
CC(NS(=O)(=O)c1ccc(F)c(Cl)c1)c1[nH]nc(-c2ccc(F)cc2)c1-c1ccncc1 (stereo not shown) [Example B-0643] | 0% @ 3 mpk @ -4h | 
COc1ccc(S(=O)(=O)NC(C)c2[nH]nc(-c3ccc(F)cc3)c2-c2ccncc2)cc1 (stereo not shown) [Example B-0574] | 37% @ 3 mpk @ -4h | 
O=C(C1CC1)N1CCC(c2[nH]nc(-c3ccc(F)cc3)c2-c2ccncc2)CC1 [Example B-1364] |  | Rat LPS Model % inhib @ dose @ predose time [2]: 17% @ 3 mpk @ -4h
